Experimental data as given in ChEMBL document CHEMBL4616621, “Pro-apoptotic carboxamide analogues of natural fislatifolic acid targeting Mcl-1 and Bcl-2” (Bioorg Med Chem Lett, 2020).

How the values were obtained:
Bcl-2-like protein 1 = Bcl-2-like protein 1 (Homo sapiens, UniProt Q07817); assay: Inhibition of Bcl-xL (unknown origin)/Bak interaction preincubated for 5 mins followed by fluorescein-labeled peptide addition and measured after 10 mins by fluorescein-labeled peptide displacement based fluorescence polarization assay
[1] = molecular target: Induced myeloid leukemia cell differentiation protein Mcl-1 (Homo sapiens, UniProt Q07820); assay: Inhibition of Mcl-1 (unknown origin)/Bid interaction preincubated for 5 mins followed by fluorescein-labeled peptide addition and measured after 10 mins by fluorescein-labeled peptide displacement based fluorescence polarization assay
[2] = molecular target: Apoptosis regulator Bcl-2 (Homo sapiens, UniProt P10415); assay: Inhibition of Bcl2 (unknown origin)/Bim interaction preincubated for 5 mins followed by fluorescein-labeled peptide addition and measured after 10 mins by fluorescein-labeled peptide displacement based fluorescence polarization assay
A549 = assay: Antiproliferative activity against human A549 cells assessed as cell death; format: functional, cell-based
MCF7 = assay: Antiproliferative activity against human MCF7 cells assessed as cell death; format: functional, cell-based

Chain of Induced myeloid leukemia cell differentiation protein Mcl-1 (Q07820 whole entry): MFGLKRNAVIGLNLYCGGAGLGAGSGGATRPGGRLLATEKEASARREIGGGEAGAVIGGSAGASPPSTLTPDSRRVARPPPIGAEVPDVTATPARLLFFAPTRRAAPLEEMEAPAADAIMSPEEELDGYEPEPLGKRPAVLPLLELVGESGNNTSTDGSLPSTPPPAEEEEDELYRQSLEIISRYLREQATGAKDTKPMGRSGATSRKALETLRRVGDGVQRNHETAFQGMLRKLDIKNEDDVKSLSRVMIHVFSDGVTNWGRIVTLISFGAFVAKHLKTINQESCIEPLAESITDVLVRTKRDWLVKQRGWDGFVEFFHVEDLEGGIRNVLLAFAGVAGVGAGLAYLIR
Chain of Bcl-2-like protein 1 (Q07817 whole entry): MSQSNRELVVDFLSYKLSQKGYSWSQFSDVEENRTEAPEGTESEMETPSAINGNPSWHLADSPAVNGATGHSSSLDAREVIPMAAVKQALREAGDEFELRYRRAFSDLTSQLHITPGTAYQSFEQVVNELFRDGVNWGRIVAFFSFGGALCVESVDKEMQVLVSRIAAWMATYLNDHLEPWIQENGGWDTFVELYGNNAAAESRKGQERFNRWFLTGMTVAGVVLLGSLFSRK
Chain of Apoptosis regulator Bcl-2 (P10415 whole entry): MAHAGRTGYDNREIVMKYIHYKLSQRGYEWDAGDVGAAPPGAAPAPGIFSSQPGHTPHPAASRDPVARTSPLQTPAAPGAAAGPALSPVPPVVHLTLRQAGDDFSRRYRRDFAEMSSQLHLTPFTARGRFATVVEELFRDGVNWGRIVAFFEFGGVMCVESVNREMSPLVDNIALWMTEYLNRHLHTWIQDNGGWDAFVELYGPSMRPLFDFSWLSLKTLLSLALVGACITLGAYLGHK

SMILES | Ki (Bcl-2-like protein 1) [µM] | Ki [1] [µM] | Ki [2] [µM] | IC50 (A549) [µM] | IC50 (MCF7) [µM]
CC(C)=CCCC1=CC[C@H](C(=O)Nc2ccc(O)cc2)[C@@H](c2ccccc2)C1 | > 23 | > 33 | > 23 | 66.8 | 66.7
COc1ccc(NC(=O)[C@@H]2CC=C(CCC=C(C)C)C[C@H]2c2ccccc2)cc1 | > 23 | > 33 | > 23 |  | 
CC1(C)CCCC2=C1C[C@H](C(=O)O)[C@@H](c1ccccc1)C2 | > 23 | 9 | > 23 |  | 
COc1ccc(NC(=O)[C@H]2CC=C(CCC=C(C)C)C[C@@H]2c2ccccc2)cc1 | > 23 | > 33 | > 23 |  | 
COC(=O)c1ccc(NC(=O)[C@@H]2CC=C(CCC=C(C)C)C[C@H]2c2ccccc2)cc1 | > 23 | > 33 | > 23 |  | 
CCCCCC[C@H]1C(=O)O[C@H](C)[C@H](NC(=O)c2cccc(NC=O)c2O)C(=O)O[C@@H](C)[C@@H]1OC(=O)CC(C)C [ANTIMYCIN A] |  |  |  | 6.5 | 
CON(C)C(=O)[C@H]1CC=C(CCC=C(C)C)C[C@@H]1c1ccccc1 | > 23 | 0.9 | 0.3 | 31.2 | 42.1
CON(C)C(=O)[C@@H]1CC=C(CCC=C(C)C)C[C@H]1c1ccccc1 | > 23 | > 33 | > 23 |  | 
COC(=O)c1ccc(NC(=O)[C@H]2CC=C(CCC=C(C)C)C[C@@H]2c2ccccc2)cc1 | > 23 | > 33 | > 23 |  | 
CON(C)C(=O)[C@@H]1CC2=C(CCCC2(C)C)C[C@H]1c1ccccc1 | > 23 | 15 | > 23 |  | 
CON(C)C(=O)[C@H]1CC2=C(CCCC2(C)C)C[C@@H]1c1ccccc1 | > 23 | 18.9 | > 23 |  | 
CC(C)=CCCC1=CC[C@@H](C(=O)Nc2ccc(C(=O)O)cc2)[C@H](c2ccccc2)C1 | > 23 | > 33 | 2.2 |  | 
CC1(C)CCCC2=C1C[C@@H](C(=O)O)[C@H](c1ccccc1)C2 | > 23 | > 33 | > 23 |  | 
CC(C)=CCCC1=CC[C@H](C(=O)Nc2ccc(C(=O)O)cc2)[C@@H](c2ccccc2)C1 | > 23 | 8.5 | > 23 |  | 
CC(C)=CCCC1=CC[C@@H](C(=O)Nc2ccc(O)cc2)[C@H](c2ccccc2)C1 | > 23 | > 33 | > 23 |  | 

Further lines, with some results ahead:

Ki (Bcl-2-like protein 1) [µM] | Ki [1] [µM] | Ki [2] [µM] | SMILES | IC50 (A549) [µM] | IC50 (MCF7) [µM]
> 23 | 9.2 | 2.3 | CC(C)=CCCC1=CC[C@@H](C(=O)N(C)O)[C@H](c2ccccc2)C1 |  | 
> 23 | 7.2 | 2.1 | CC(C)=CCCC1=CC[C@H](C(=O)N(C)O)[C@@H](c2ccccc2)C1 |  | 
> 23 | 15 | > 23 | COC(=O)CCNC(=O)[C@@H]1CC=C(CCC=C(C)C)C[C@H]1c1ccccc1 |  | 
20.1 | 5.4 | > 23 | CC(C)=CCCC1=CC[C@H](C(=O)N(C)C)[C@@H](c2ccccc2)C1 |  | 
> 23 | > 33 | > 23 | CC(C)=CCCC1=CC[C@@H](C(=O)NCCC(=O)O)[C@H](c2ccccc2)C1 |  | 
5.7 | 4 | > 23 | CC(C)=CCCC1=CC[C@H](C(=O)O)[C@@H](c2ccccc2)C1 | 53.7 | 64.3
19 | 7.3 | 0.6 | CC(C)=CCCC1=CC[C@H](C(=O)NO)[C@@H](c2ccccc2)C1 | 71.7 | 72.3
> 23 | > 33 | > 23 | CC(C)=CCCC1=CC[C@@H](C(N)=O)[C@H](c2ccccc2)C1 |  | 
17.4 | 8.2 | 0.7 | CC(C)=CCCC1=CC[C@@H](C(=O)NO)[C@H](c2ccccc2)C1 |  | 
> 23 | > 33 | > 23 | CC(C)=CCCC1=CC[C@@H](C(=O)N(C)C)[C@H](c2ccccc2)C1 |  | 
> 23 | > 33 | 2.7 | CONC(=O)[C@@H]1CC=C(CCC=C(C)C)C[C@H]1c1ccccc1 |  | 
> 23 | > 33 | > 23 | CC(C)=CCCC1=CC[C@H](C(=O)NCCC(=O)O)[C@@H](c2ccccc2)C1 |  | 
9.6 | 8.6 | > 23 | CC(C)=CCCC1=CC[C@@H](C(=O)O)[C@H](c2ccccc2)C1 |  | 
> 23 | 5.5 | 3.1 | COC(=O)CCNC(=O)[C@H]1CC=C(CCC=C(C)C)C[C@@H]1c1ccccc1 | 87.9 | 96.8
> 23 | > 33 | > 23 | CC(C)=CCCC1=CC[C@H](C(N)=O)[C@@H](c2ccccc2)C1 |  | 
> 23 | 16.6 | 2.4 | CONC(=O)[C@H]1CC=C(CCC=C(C)C)C[C@@H]1c1ccccc1 | 42.2 | 45.2
